# Reference: ChEMBL document CHEMBL1201862, “PubChem BioAssay data set” (2004)
#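 Growth conditions: 96-well plates. Treatment: test compound, 48 hours, 5 concentrations. Analysis: linear interpolation between bracketing concentrations; unreached endpoints set to highest concentration. GI50: concentration for 50% inhibition of growth.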 Active and inactive are the calls of the source. Cut-off read from the data, not from the text of the source: active = GI50 up to about 1.1 µM and inactive = higher.
# Key:
# Assay in all cases: DTP human tumour cell line panel, 48 h
# [1] = tested on: EKVX
# [2] = tested on: HCC 2998
# [3] = tested on: HCT-116
# [4] = tested on: HL-60
# [5] = tested on: MOLT-4
# [6] = tested on: Malme-3M
# [7] = tested on: NCI-H226
# [8] = tested on: NCI-H23
# [9] = tested on: NCI-H522
# [10] = tested on: OVCAR-3
# [11] = tested on: OVCAR-8
# [12] = tested on: SF-295
# [13] = tested on: SF-539
# [14] = tested on: SN12C
# [15] = tested on: UACC-257
# [16] = tested on: HCT-15
# [17] = tested on: NCI-H460
Compound,GI50 [1],GI50 [2],GI50 [3],GI50 [4],GI50 [5],GI50 [6],GI50 [7],GI50 [8],GI50 [9],GI50 [10],GI50 [11],GI50 [12],GI50 [13],GI50 [14],GI50 [15],GI50 [16] [µM],GI50 [17]
CC(=O)OCC1OC(Sc2ccccn2)C=CC1OC(C)=O (centres undefined),> 100 µM (inactive),> 100 µM (inactive),> 100 µM (inactive),> 100 µM (inactive),> 100 µM (inactive),> 100 µM (inactive),> 100 µM (inactive),> 100 µM (inactive),> 100 µM (inactive),> 100 µM (inactive),> 100 µM (inactive),> 100 µM (inactive),> 100 µM (inactive),> 100 µM (inactive),> 100 µM (inactive),,
CC(=O)O[C@H]1C(=O)[C@@]2(C)C(C(OC(=O)c3ccccc3)[C@]3(O)CC(OC(=O)C(O)C(NC(=O)c4ccc(C)cc4)c4ccccc4)C(C)=C1C3(C)C)[C@]1(OC(C)=O)CO[C@@H]1C[C@@H]2O (some centres undefined),0.111 µM (active),,< 0.0025 µM (active),< 0.0025 µM (active),< 0.0025 µM (active),0.0043 µM (active),,0.00785 µM (active),< 0.0025 µM (active),< 0.0025 µM (active),0.00426 µM (active),0.0228 µM (active),< 0.0025 µM (active),0.0112 µM (active),0.00708 µM (active),0.173,< 0.0025 µM (active)
On1c(-c2ccccc2)c(-c2ccccc2N2CCCC2)c2ccccc21,> 100 µM (inactive),> 100 µM (inactive),> 100 µM (inactive),> 100 µM (inactive),> 100 µM (inactive),> 100 µM (inactive),> 100 µM (inactive),> 100 µM (inactive),> 100 µM (inactive),> 100 µM (inactive),> 100 µM (inactive),> 100 µM (inactive),> 100 µM (inactive),> 100 µM (inactive),> 100 µM (inactive),> 100,> 100 µM (inactive)
Cc1cc(N)c(C)c2c1[nH]c1ccc(O)cc12,> 100 µM (inactive),> 100 µM (inactive),> 100 µM (inactive),79.3 µM (inactive),32.4 µM (inactive),> 100 µM (inactive),> 100 µM (inactive),> 100 µM (inactive),17 µM (inactive),50.6 µM (inactive),88.5 µM (inactive),> 100 µM (inactive),> 100 µM (inactive),> 100 µM (inactive),> 100 µM (inactive),> 100,> 100 µM (inactive)
